According to the supplement of paper PMC10307832:

Key:
Assay in all cases: relative viability (nuclei count vs DMSO), 5 days (fraction); higher = more cells survive
[1] = compound: Cc1ccc(NC(=O)c2ccc(CN3CCN(C)CC3)cc2)cc1Nc1nc(-c2cccnc2)cs1 [Masitinib] + CC(=O)c1c(C)c2cnc(Nc3ccc(N4CCNCC4)cn3)nc2n(C2CCCC2)c1=O [Palbociclib] (partner 0.5 µM)
Outline: (§1)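 Lung cancer cell lines in 1536-well plates got either a single drug or a fixed anchor-drug dose together with five library-drug doses (not always all listed) in √10 steps, by pin tool, on the day after seeding. Nuclei were counted after 5 days, and relative viability is the treated-to-vehicle ratio of nuclei counts. Values are medians of duplicate plates.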

[2] = compound: Cc1ccc(NC(=O)c2ccc(CN3CCN(C)CC3)cc2)cc1Nc1nc(-c2cccnc2)cs1 [Masitinib] + NC(=O)Nc1cc(-c2cccc(F)c2)sc1C(=O)N[C@H]1CCCNC1 [AZD7762] (partner 0.2 µM)
Outline: as §1

[3] = compound: CC1=CC(=CC=C1)NC2=NC(=CS2)C3=CC=NC=C3 + Cc1nc(NC(=O)N2CCC[C@H]2C(N)=O)sc1-c1ccnc(C(C)(C)C(F)(F)F)c1 [Alpelisib] (partner 2 µM)
Outline: as §1

[4] = compound: Cc1ccc(NC(=O)c2ccc(CN3CCN(C)CC3)cc2)cc1Nc1nc(-c2cccnc2)cs1 [Masitinib] + CC(C)C[C@H](NC(=O)[C@H](Cc1ccccc1)NC(=O)c1cnccn1)B(O)O [Bortezomib] (partner 0.002 µM)
Outline: as §1

| Cell Line | relative viability ([1]; first compound 0.01 µM) | relative viability ([1]; first compound 0.03162 µM) | relative viability ([1]; first compound 0.1 µM) | relative viability ([1]; first compound 0.3162 µM) | relative viability ([1]; first compound 1 µM) | relative viability ([2]; first compound 0.01 µM) | relative viability ([2]; first compound 0.03162 µM) | relative viability ([2]; first compound 0.1 µM) | relative viability ([2]; first compound 0.3162 µM) | relative viability ([2]; first compound 1 µM) | relative viability ([3]; first compound 0.08 µM) | relative viability ([3]; first compound 0.253 µM) | relative viability ([3]; first compound 0.8 µM) | relative viability ([3]; first compound 2.53 µM) | relative viability ([3]; first compound 8 µM) | relative viability ([4]; first compound 0.01 µM) | relative viability ([4]; first compound 0.03162 µM) | relative viability ([4]; first compound 0.1 µM) | relative viability ([4]; first compound 0.3162 µM) | relative viability ([4]; first compound 1 µM) |
| --- | --- | --- | --- | --- | --- | --- | --- | --- | --- | --- | --- | --- | --- | --- | --- | --- | --- | --- | --- | --- |
| NCI-H522 | 1.03 | 1.07 | 1.31 | 0.849 | 1.13 | 0.892 | 0.874 | 0.894 | 0.643 | 0.795 | – | – | – | – | – | – | – | – | – | – |
| HCC-15 | 0.658 | 0.74 | 0.799 | 0.739 | 0.77 | 0.794 | 1.04 | 1.02 | 0.422 | 1.24 | 0.792 | 0.699 | 0.845 | 0.841 | 0.879 | 0.714 | 1.09 | 0.847 | 1.21 | 1.04 |
| A-427 | 0.453 | 0.557 | 0.548 | 0.525 | 0.488 | 0.775 | 0.657 | 0.689 | 0.744 | 0.559 | 1.03 | 1.06 | 1.1 | – | 0.844 | – | 0.977 | – | 0.99 | 1.06 |
| NCI-H23 | 0.439 | 0.482 | 0.598 | 0.575 | 0.527 | 0.21 | 0.273 | 0.277 | 0.237 | 0.198 | 0.567 | 0.677 | 0.727 | 0.634 | 0.738 | 1.06 | 1.05 | 1.14 | 1.03 | 1.11 |
| NCI-H1755 | 0.428 | 0.474 | 0.448 | 0.491 | 0.402 | 0.404 | 0.452 | 0.468 | 0.45 | 0.479 | 0.869 | 0.856 | 0.826 | 0.815 | 0.548 | – | 0.966 | 0.832 | 0.907 | 0.816 |
| LU99A | 0.431 | 0.417 | 0.419 | 0.428 | 0.418 | 0.462 | 0.293 | 0.312 | 0.319 | 0.273 | – | 0.49 | 0.433 | 0.428 | 0.443 | 1.03 | 1.12 | 1.02 | 1.21 | 1.07 |
| PC-3 [JPC-3] | 0.438 | 0.498 | 0.553 | 0.526 | 0.466 | 0.785 | 0.873 | 0.837 | 0.645 | 0.642 | 0.95 | 0.939 | 0.845 | 0.875 | 0.84 | 0.833 | 0.936 | 0.784 | 0.878 | 0.841 |
| NCI-H1975 | 0.424 | 0.517 | 0.468 | 0.399 | 0.587 | 0.707 | 0.665 | 0.884 | 0.434 | 0.546 | 0.609 | 0.5 | 0.553 | 0.475 | 0.358 | 0.378 | 0.319 | 0.388 | 0.319 | 0.373 |
| NCI-H1703 | – | – | – | – | – | 0.113 | 0.158 | 0.102 | 0.121 | 0.106 | 0.391 | 0.294 | 0.408 | 0.354 | 0.323 | 0.29 | 0.246 | 0.229 | 0.269 | 0.174 |
| HCC-366 | – | 0.39 | 0.388 | 0.407 | 0.375 | – | 0.226 | 0.256 | 0.203 | 0.188 | 0.306 | 0.215 | 0.275 | 0.317 | 0.209 | 1.04 | 0.905 | 1.08 | 1.01 | 1.14 |
| NCI-H1793 | 0.282 | 0.279 | 0.348 | 0.303 | 0.259 | 0.473 | 0.348 | 0.434 | 0.283 | 0.202 | – | 0.625 | 0.704 | 0.69 | 0.79 | – | – | – | – | – |
| NCI-H727 | 0.599 | 0.692 | 0.668 | 0.621 | 0.618 | 0.592 | 0.626 | 0.566 | 0.495 | 0.606 | 0.44 | 0.497 | 0.53 | 0.508 | 0.469 | 0.846 | 0.847 | 1.02 | 1.04 | 0.744 |
| RERF-LC-KJ | 1.05 | 1.02 | 1.09 | 1.21 | 0.938 | 0.781 | 0.934 | 0.949 | 0.906 | 0.92 | 1.01 | 0.83 | 0.773 | 0.715 | 0.654 | 0.939 | 1 | 1.07 | 1.09 | 1 |
| Calu-6 | – | – | – | – | – | – | – | – | – | – | 0.886 | 0.744 | 0.906 | 0.957 | 0.919 | 0.903 | 1.04 | 1.07 | 0.774 | 0.876 |
| LC-2-ad | 0.494 | 0.474 | 0.544 | 0.47 | 0.503 | 0.687 | 0.795 | 0.707 | 0.71 | 0.818 | 0.859 | 0.698 | 0.812 | 0.813 | 0.817 | 0.816 | 0.992 | 0.926 | 0.996 | 0.93 |
| CAL-12T | 0.445 | 0.333 | 0.455 | 0.305 | 0.502 | 0.586 | 0.639 | 0.606 | 0.605 | 0.498 | 1.22 | 1.13 | 1.33 | 1.07 | 1.22 | 0.852 | 1.05 | 1.06 | 1.07 | 0.713 |
| SK-LU-1 | 0.431 | 0.362 | 0.373 | 0.405 | 0.416 | – | – | – | – | – | 0.955 | 0.934 | 0.617 | 0.992 | 0.852 | 1.2 | 1.13 | 1.28 | 1.24 | 0.899 |
| NCI-H1651 | 0.388 | 0.505 | 0.419 | 0.535 | 0.523 | 0.49 | 0.523 | 0.485 | 0.475 | 0.471 | 0.973 | 0.992 | 0.967 | 0.944 | 0.959 | 0.891 | 0.941 | 0.927 | 0.983 | 0.944 |
